Results on 18 molecules are retold here after patent US20080275023A1, “N-Hydroxyamides Omege-Substituted with Tricyclic Groups as Histone Deacetylase Inhibitors, Their Preparation and Use in Pharmaceutical Formulations” (priority 2005, published 2008).

The test system of assay [1] is histone deacetylase (HDAC), HeLa nuclear extract. The experiment in a line: Deacetylase activity on nuclear extract of HeLa cells (Fluor de Lys kit). The note with it: 0.1 μM compound, percent inhibition relative to control without inhibitor. Type of assay: biochemical, human. As for the experimental part:
The activity of the compounds as histone deacetylase (HDAC) inhibitors was measured using an in vitro acetylation assay. The compounds were then evaluated as inhibitors of proliferation of human tumor cell cultures.
Deacetylase Activity on Nuclear Extract of Hela Cells (Human Cervical Cancer Cell)
The assay (Fluor de Lys™ kit, BioMol) is divided into two steps: in the first step the substrate which comprises an acetylated lysine residue is reacted with the nuclear extract (HeLa) containing the enzymatic activity in the presence and absence of inhibitors. In the second step a fluorogenic reagent is added which highlights the deacetylated residues. A reduction in fluorescence is obtained where there has been inhibition of the deacetylase activity.

For assay [2], the system named is HCT-116 human colon carcinoma cells. The assay can be described thus: Cytotoxic activity on culture of human colon carcinoma cells HCT-116 (Alamar Blue). Type of assay: cell-based. As to conditions: HCT-116 cells, 72 hours after addition of compounds, Alamar Blue viability. Here is the method: Evaluation of Cytotoxic Activity on Culture of Human Colon Carcinoma Cells HCT-116
Human colon carcinoma cells HCT-116 were seeded onto 96-well plates in RPMI1640 culture medium with added 10% FBS and 2 mM glutamine. 24 hours after seeding, the compounds at different concentrations are added. All the compounds are diluted in DMSO such that the final concentrations on the cultures is no greater than 0.5%. 72 hours after addition of the compounds, cell viability is measured by means of the dye Alamar Blue. The result is expressed as percent survival of the treated relative to the control, treated with carrier alone.

What is called IC50 is the concentration at which inhibition is half-maximal. A low value points to inhibition by little substance. In the case of `O=C(CCCCCN1C(=O)c2ccccc2S(=O)(=O)c2ccccc21)NO` [Example 8, 6-(5,5,11-Trioxo-5,11-dihydro-5λ^6-dibenzo[b,f][1,4]thiazepin-10-yl)-hexanoic acid hydroxyamide], the “% inhib at 0.1 μM” value in assay [1] was 73%. Besides, the midpoint of inhibition in assay [2], the IC50, lay at 105 nM.

In the case of `COc1ccc2c(c1)N(CCCCCC(=O)NO)C(=O)c1ccccc1S2(=O)=O` [Example 9, 6-(8-Methoxy-5,5,11-trioxo-5,11-dihydro-5λ^6-dibenzo[b,f][1,4]thiazepin-10-yl)-hexanoic acid hydroxyamide], in assay [1], the “% inhib at 0.1 μM” value was found to be 83%. In assay [2], the half-maximal inhibitory concentration (IC50) is 40 nM. On the same counts, the results for `O=C(CCCCCN1C(=O)c2ccccc2S(=O)(=O)c2ccc(Cl)cc21)NO` [Example 10, 6-(8-Chloro-5,5,11-trioxo-5,11-dihydro-5λ^6-dibenzo[b,f][1,4]thiazepin-10-yl)-hexanoic acid hydroxyamide] are 77% and 30 nM.

For the molecule `COc1ccc2c(c1)N(CCCCCC(=O)NO)C(=O)c1ccccc1[S+]2[O-]` (stereo not shown) [Example 11, 6-(8-Methoxy-5,11-dioxo-5,11-dihydro-5λ^4-dibenzo[b,f][1,4]thiazepin-10-yl)-hexanoic acid hydroxyamide], the “% inhib at 0.1 μM” value in assay [1] is listed as 73%. The molecule also had an IC50 in assay [2] of 50 nM.

Consider `O=C(CCCCCN1C(=O)c2ccccc2Oc2ccccc21)NO` [Example 12, 6-(11-Oxo-11H-dibenzo[b,f][1,4]oxazepin-10-yl)-hexanoic acid hydroxyamide], for which, in assay [1], the “% inhib at 0.1 μM” value is recorded as 66%. Besides, half-maximal inhibition in assay [2] (IC50) was put at 640 nM. The like results for `COc1ccc2c(c1)N(CCCCCC(=O)NO)C(=O)c1ccccc1O2` [Example 13, 6-(8-Methoxy-11-oxo-11H-dibenzo[b,f][1,4]oxazepin-10-yl)-hexanoic acid hydroxyamide] were, in that order, 73% and 310 nM.

Turning to `O=C(CCCCCN1C(=O)c2ccccc2Oc2ccc(Cl)cc21)NO` [Example 14, 6-(8-Chloro-11-oxo-11H-dibenzo[b,f][1,4]oxazepin-10-yl)-hexanoic acid hydroxyamide], in assay [1], the “% inhib at 0.1 μM” value is 65%. The molecule also returned an IC50 in assay [2] of 200 nM. On the same counts, the results for `O=C(CCCCCCN1C(=O)c2ccccc2Oc2ccccc21)NO` [Example 15, 7-(11-Oxo-11H-dibenzo[b,f][1,4]oxazepin-10-yl)-heptanoic acid hydroxyamide] are 62% and 200 nM. Regarding `O=C(CCCCCN1C(=O)c2cscc2Nc2cc(Cl)c(Cl)cc21)NO` [Example 17, 6-(6,7-Dichloro-10-oxo-4H,10H-2-thia-4,9-diaza-benzo[f]azulen-9-yl)-hexanoic acid hydroxyamide], the IC50 in assay [2] stood at 800 nM. As to `CN(C)c1ccc2c(c1)S(=O)(=O)N(CCCCCC(=O)NO)c1ccccc1N2` [Example 20, 6-(8-Dimethylamino-10,10-dioxo-5,10-dihydro-10λ^6-thia-5,11-diaza-dibenzo[a,d]cyclohepten-11-yl)-hexanoic acid hydroxyamide], the “% inhib at 0.1 μM” value in assay [1] stood at 40%. The molecule also came in with an IC50 in assay [2] of 390 nM. In the case of `COc1ccc2c(c1)Nc1ccccc1S(=O)(=O)N2CCCCCC(=O)NO` [Example 21, 6-(3-Methoxy-10,10-dioxo-5,10-dihydro-10λ^6-thia-5,11-diaza-dibenzo[a,d]cyclohepten-11-yl)-hexanoic acid hydroxyamide], the IC50 in assay [2] amounted to 290 nM. Regarding `O=C(CCCCCN1c2ccccc2Oc2ccccc2S1(=O)=O)NO` [Example 23, 6-(10,10-Dioxo-10H-5-oxa-10λ^6-thia-11-aza-dibenzo[a,d]cyclohepten-11-yl)-hexanoic acid hydroxyamide], in assay [1], the “% inhib at 0.1 μM” value is given as 48%. Besides, the midpoint of inhibition in assay [2], the IC50, lay at 190 nM. In the case of `O=C(CCCCCN1c2cc(F)ccc2Nc2ccccc2S1(=O)=O)NO` [Example 25, 6-(2-Fluoro-10,10-dioxo-5,10-dihydro-10λ^6-thia-5,11-diaza-dibenzo[a,d]cyclohepten-11-yl)-hexanoic acid hydroxyamide], in assay [1], the “% inhib at 0.1 μM” value stood at 42%. In addition, 1500 nM corresponded to half-maximal inhibition in assay [2] (IC50). For `CN(C)c1ccc2c(c1)S(=O)(=O)N(CCCCCC(=O)NO)c1ccc(O)cc1N2` [Example 26, 6-(8-Dimethylamino-3-hydroxy-10,10-dioxo-5,10-dihydro-10λ^6-thia-5,11-diaza-dibenzo[a,d]cyclohepten-11-yl)-hexanoic acid hydroxyamide], the “% inhib at 0.1 μM” value in assay [1] stood at 66%. Further, in assay [2], the half-inhibitory concentration (IC50) was found to be 1000 nM. In the case of `COc1ccc2c(c1)Nc1ccc(N(C)C)cc1S(=O)(=O)N2CCCCCC(=O)NO` [Example 27, 6-(8-Dimethylamino-3-methoxy-10,10-dioxo-5,10-dihydro-10λ^6-thia-5,11-diaza-dibenzo[a,d]cyclohepten-11-yl)-hexanoic acid hydroxyamide], the “% inhib at 0.1 μM” value in assay [1] was determined as 63%. It took 400 nM to reach half-maximal inhibition in assay [2] (IC50).

As to `COc1ccc2c(c1)N(CCCCCC(=O)NO)S(=O)(=O)c1ccccc1N2` [Example 29, 6-(2-Methoxy-10,10-dioxo-5,10-dihydro-10λ^6-thia-5,11-diaza-dibenzo[a,d]cyclohepten-11-yl)-hexanoic acid hydroxyamide], in assay [1], the “% inhib at 0.1 μM” value is 54%. In assay [2], this molecule came in with an IC50 of 900 nM. Turning to `COc1ccc2c(c1)Nc1ccccc1N(CCCCCC(=O)NO)S2(=O)=O` [Example 30, 6-(7-Methoxy-10,10-dioxo-5,10-dihydro-10λ^6-thia-5,11-diaza-dibenzo[a,d]cyclohepten-11-yl)-hexanoic acid hydroxyamide], the “% inhib at 0.1 μM” value in assay [1] was 65%. This molecule registered a half-maximal inhibitory concentration (IC50) in assay [2] of 390 nM. Take `Nc1cccc2c1Nc1ccccc1S(=O)(=O)N2CCCCCC(=O)NO` [Example 32, 6-(4-Amino-10,10-dioxo-5,10-dihydro-10λ^6-thia-5,11-diaza-dibenzo[a,d]cyclohepten-11-yl)-hexanoic acid hydroxyamide]: the “% inhib at 0.1 μM” value in assay [1] worked out at 47%. Further, half-maximal inhibition in assay [2] (IC50) required 2000 nM.
